Source: patent US6737383B1, “Herbicidal oxadiazolidines” (priority 1999, dated 2004)

Legend:
annual bluegrass = assay: Test E annual bluegrass; type: in vivo, Poa annua; details: Postemergence
Description: (§1) Compounds evaluated in this test were formulated in a non-phytotoxic solvent mixture which included a surfactant and applied to plants that were in the 1- to 4-leaf stage (postemergence application). A mixture of sandy loam soil and greenhouse potting mix in a 60:40 ratio was used for the postemergence test.
(§2) Plantings of these crops and weed species were adjusted to produce plants of appropriate size for the postemergence test. All plant species were grown using normal greenhouse practices. Crop and weed species include annual bluegrass (Poa annua), blackgrass (Alopecurus myosuroides), black nightshade (Solanum nigra), chickweed (Stellaria media), common poppy (Papaver rhoeas), deadnettle (Lamium amplexicaule), downy brome (Bromus tectorum), field violet (Viola arvensis), galium (Galium aparine), green foxtail (Setaria viridis), Italian ryegrass (Lolium multiflorum), jointed goatgrass (Aegilops cylindrica), kochia (Kochia scoparia), lambsquarters (Chenopodium album), littleseed canarygrass (Phalaris minor), rape (Brassica napus), redroot pigweed (Amaranthus retroflexus), Russian thistle (Salsola kali), scentless chamomile (Matricaria inodora), spring barley (Hordeum vulgare), sugar beet (Beta vulgaris), sunflower (Helianthus annuus), ivyleaf speedwell (Veronica hederaefolia), spring wheat (Triticum aestivum), winter wheat (Triticum aestivum), wild buckwheat (Polygonum convolvulus), wild mustard (Sinapis arvensis), wild oat (Avena fatua), windgrass (Apera spica-venti) and winter barley (Hordeum vulgare).
(§3) Treated plants and untreated controls were maintained in a greenhouse for approximately 21 to 28 days, after which all treated plants were compared to untreated controls and visually evaluated. […] A dash response (-) means no test result.

blackgrass = assay: Test E blackgrass; type: in vivo, Alopecurus myosuroides; details: Postemergence
Procedure, shortened: (§4)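 Postemergence: 60:40 sandy loam/greenhouse potting mix, 1- to 4-leaf stage. Formulation: solvent plus surfactant. Assessment: visual comparison with untreated controls at ~21–28 days.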

black nightshade = assay: Test E black nightshade; type: in vivo, Solanum nigra; details: Postemergence
Description: as §1, §2, §3

deadnettle = assay: Test E deadnettle; type: in vivo, Lamium amplexicaule; details: Postemergence
Procedure, shortened: as §4

galium = assay: Test E galium; type: in vivo, Galium aparine; details: Postemergence
Description: […] A mixture of sandy loam soil and greenhouse potting mix in a 60:40 ratio was used for the postemergence test.
as §2, §3

jointed goatgrass = assay: Test E jointed goatgrass; type: in vivo, Aegilops cylindrica; details: Postemergence
Description: as §1, §2, §3

kochia = assay: Test E kochia; type: in vivo, Kochia scoparia; details: Postemergence
Procedure, shortened: as §4

lambsquarters [1] = assay: Test E lambsquarters; type: in vivo, Chenopodium album; details: Postemergence
Description: as §1, §2, §3

spring barley = assay: Test E spring barley; type: in vivo, Hordeum vulgare; details: Postemergence
Procedure, shortened: as §4

sugar beet = assay: Test E sugar beet; type: in vivo, Beta vulgaris; details: Postemergence
Description: as §1, §2, §3

spring wheat = assay: Test E spring wheat; type: in vivo, Triticum aestivum; details: Postemergence
Procedure, shortened: as §4

wild oat = assay: Test E wild oat; type: in vivo, Avena fatua; details: Postemergence
Procedure, shortened: as §4

chickweed = assay: Test E chickweed; type: in vivo, Stellaria media; details: Preemergence
downy brome = assay: Test E downy brome; type: in vivo, Bromus tectorum; details: Preemergence
lambsquarters [2] = assay: Test E lambsquarters; type: in vivo, Chenopodium album; details: Preemergence
littleseed canarygrass = assay: Test E littleseed canarygrass; type: in vivo, Phalaris minor; details: Preemergence
scentless chamomile = assay: Test E scentless chamomile; type: in vivo, Matricaria inodora; details: Preemergence
[3] = Rate 250 g/ha, 0 to 100 scale (0 no effect, 100 complete control)
[4] = Rate 500 g/ha, 0 to 100 scale, 0 no effect, 100 complete control
[5] = Rate 125 g/ha, 0 to 100 scale (0 no effect, 100 complete control)
[6] = Rate 500 g/ha, 0 to 100 scale where 0 is no effect and 100 is complete control

SMILES: CC(C)N(C(=O)n1oc(=O)n(C(C)C)c1=O)c1ccc(F)cc1F [Compound 109]
- Plant response rating, Annual bluegras (annual bluegrass; Rate 125 g/ha, 0 to 100 scale): 10
- Plant response rating, Annual bluegras (annual bluegrass; [3]): 10
- Plant response rating, Annual bluegras (annual bluegrass; [4]): 50
- Plant response rating, Blackgrass (blackgrass; Rate 125 g/ha, 0 to 100 scale): 30
- Plant response rating, Blackgrass (blackgrass; [3]): 10
- Plant response rating, Blackgrass (blackgrass; [4]): 70
- Plant response rating, Blk nightshade (black nightshade; Rate 125 g/ha, 0 to 100 scale): 40
- Plant response rating, Blk nightshade (black nightshade; [3]): 40
- Plant response rating, Blk nightshade (black nightshade; [4]): 60
- Plant response rating, Deadnettle (deadnettle; Rate 125 g/ha, 0 to 100 scale): 0
- Plant response rating, Deadnettle (deadnettle; [3]): 30
- Plant response rating, Deadnettle (deadnettle; [4]): 30
- Plant response rating, Galium (galium; Rate 125 g/ha, 0 to 100 scale): 50
- Plant response rating, Galium (galium; [3]): 30
- Plant response rating, Galium (galium; [4]): 50
- Plant response rating, Jointed goatgra (jointed goatgrass; Rate 125 g/ha, 0 to 100 scale): 10
- Plant response rating, Jointed goatgra (jointed goatgrass; [3]): 5
- Plant response rating, Jointed goatgra (jointed goatgrass; [4]): 30
- Plant response rating, Kochia (kochia; Rate 125 g/ha, 0 to 100 scale): 30
- Plant response rating, Kochia (kochia; [3]): 30
- Plant response rating, Kochia (kochia; [4]): 50
- Plant response rating Lambsquarters (lambsquarters [1]; Rate 125 g/ha, 0 to 100 scale): 20
- Plant response rating Lambsquarters (lambsquarters [1]; [3]): 30
- Plant response rating Lambsquarters (lambsquarters [1]; [4]): 30
- Plant response rating, Spring Barley (spring barley; Rate 125 g/ha, 0 to 100 scale): 30
- Plant response rating, Spring Barley (spring barley; [3]): 20
- Plant response rating, Spring Barley (spring barley; [4]): 20
- Plant response rating, Sugar beet (sugar beet; Rate 125 g/ha, 0 to 100 scale): 30
- Plant response rating, Sugar beet (sugar beet; [3]): 35
- Plant response rating, Sugar beet (sugar beet; [4]): 30
- Plant response rating, Spring Wheat (spring wheat; Rate 125 g/ha, 0 to 100 scale): 30
- Plant response rating, Spring Wheat (spring wheat; [3]): 20
- Plant response rating, Spring Wheat (spring wheat; [4]): 10
- Plant response rating, Wild oat (wild oat; Rate 125 g/ha, 0 to 100 scale): 0
- Plant response rating, Wild oat (wild oat; [3]): 0
- Plant response rating, Wild oat (wild oat; [4]): 10
- Plant response rating, Chickweed (chickweed; [5]): 40
- Plant response rating, Chickweed (chickweed; [6]): 100
- Plant response rating, Downy brome (downy brome; [5]): 0
- Plant response rating, Downy brome (downy brome; Rate 250 g/ha, 0 to 100 scale): 80
- Plant response rating, Downy brome (downy brome; [6]): 60
- Plant response rating Lambsquarters (lambsquarters [2]; [5]): 60
- Plant response rating Lambsquarters (lambsquarters [2]; Rate 250 g/ha, 0 to 100 scale): 100
- Plant response rating Lambsquarters (lambsquarters [2]; [6]): 100
- Plant response rating, LS canarygrass (littleseed canarygrass; [5]): 50
- Plant response rating, LS canarygrass (littleseed canarygrass; Rate 250 g/ha, 0 to 100 scale): 60
- Plant response rating, LS canarygrass (littleseed canarygrass; [6]): 50
- Plant response rating, Scentless chamo (scentless chamomile; [5]): 0
- Plant response rating, Scentless chamo (scentless chamomile; Rate 250 g/ha, 0 to 100 scale): 30
- Plant response rating, Scentless chamo (scentless chamomile; [6]): 30
